Columns and labels:
[1] = test system: cone photoreceptor precursor and rod photoreceptor precursor in retinal tissue produced from human ES cells; assay: Immunostaining for GFP (CRX::Venus), RXR-γ and NRL of retinal tissue, day 191-192, image analysis; format: cell-based; conditions: for proportion of rod photoreceptor precursor (Rod-like; NRL-positive) / proportion of cone photoreceptor precursor (Cone; RXR-γ-positive and NRL-negative): day 191-192, 100 nM LDN193189 or 100 nM SAG day 22 to day 100; for proportion of rod photoreceptor precursor (Rod-like; NRL-positive) / proportion of cone photoreceptor precursor (Cone; RXR-γ-positive and NRL-negative) / proportion of NRL-positive rod photoreceptor precursor among photoreceptor precursors versus Control group: 0.15 nM BMP4, 500 nM Cyclopamine-KAAD; for proportion of rod photoreceptor precursor (Rod-like; NRL-positive): Control (NUC) about 12.8%; for proportion of cone photoreceptor precursor (Cone; RXR-γ-positive and NRL-negative): Control (NUC) about 22.7%; for proportion of NRL-positive rod photoreceptor precursor among photoreceptor precursors versus Control group: 100 nM LDN193189, 100 nM SAG day 22 to day 100; for proportion of RXR-γ-positive cone photoreceptor precursor among photoreceptor precursors versus Control group: 500 nM Cyclopamine-KAAD or 100 nM SAG day 22 to day 100
Protocol: A cell aggregate containing a retinal tissue was prepared by the method described in “Kuwahara et al. Nat Commun 2015, 19(6), 6286-” after modification in part. That is, the aforementioned cultured ES cells were individually dispersed using TrypLE Express (Invitrogen), and the individually dispersed human ES cells were suspended in 100 μL of a serum-free medium in a cell non-adhesive 96 well plate (SUMILON spheroid plate, SUMITOMO BAKELITE CO., LTD.) at 9×10^3 cells per well to allow rapid formation of aggregates, after which they were cultured at 37° C., 5% CO2. As the serum-free medium therefor, a serum-free medium obtained by adding 10% KSR, 450 μM 1-monothioglycerol, 1× Chemically defined lipid concentrate, 5 mg/mL BSA, 20 μM Y27632 to a 1:1 mixture of F-12 medium and IMDM medium was used. At 6 days after the start of suspension culture, BMP4 at a final concentration of 1.5 nM was added and suspension culture was continued. A half amount of the culture medium in the well was exchanged with the above-mentioned medium not supplemented with a BMP signal transduction pathway agonist every 3 or 4 days. A cell aggregate containing a retinal tissue at day 18 from the start of suspension culture was cultured in suspension in a serum-free medium (DMEM/F12 medium supplemented with 1% N2 supplement) containing 3 μM CHIR99021 and 5 μM SU5402 for 4 days, namely, up to day 22 from the start of suspension culture. Thereafter, suspension culture of the cell aggregate containing the retinal tissue was continued until it was appropriately used for analysis and the like. As the culture medium during this period, serum-containing media shown in the following to [3] were used and the cell aggregate was cultured under 5% CO2 conditions.
[1] day 22 to day 38 from the start of suspension culture; DMEM/F12 medium supplemented with 10% fetal calf serum, 1% N2 supplement, and 100 μM taurine. day 38 to day 60 from the start of suspension culture; a 1:3 mixed medium of DMEM/F12 medium supplemented with 10% fetal calf serum, 1% N2 supplement, and 100 μM taurine, and Neurobasal medium supplemented with 10% fetal calf serum, 2% B27 supplement, and 100 μM taurine. after day 60 from the start of suspension culture; Neurobasal medium supplemented with 10% fetal calf serum, 2% B27 supplement, and 100 μM taurine.
[1] Control group (FIG. 3a, f, k, p); according to the method described in Example 1, cultured without addition up to day 191 from the start of suspension culture. [2]+BMP group (FIG. 3b, g, 1, q); 0.15 nM BMP4 was added from day 22 to day 100 from the start of suspension culture and cultured up to day 191 from the start of suspension culture. From day 100 to day 191 from the start of suspension culture, cultured in medium described in Example 1. [3]+Cyclopamine-KAAD group (FIG. 3c, h, m, r); 500 nM Cyclopamine-KAAD was added from day 22 to day 100 from the start of suspension culture, and cultured up to day 191 from the start of suspension culture. From day 100 to day 191 from the start of suspension culture, cultured in medium described in Example 1. [4]+LDN193189 group (FIG. 3d, i, n, s); 100 nM LDN193189 was added from day 22 to day 100 from the start of suspension culture, and cultured up to day 191 from the start of suspension culture. From day 100 to day 191 from the start of suspension culture, cultured in medium described in Example 1. [5]+SAG group (FIG. 3e, j, o, t); 100 nM SAG was added from day 22 to day 100 from the start of suspension culture, and cultured up to day 191 from the start of suspension culture. From day 100 to day 191 from the start of suspension culture, cultured in medium described in Example 1. […]

ALDH1A3 = assay: Immunostaining for ALDH1A3 (ventral marker) of retinal tissue; format: cell-based, human; conditions: day 75, 0.15 nM BMP4, 100 nM LDN193189, 100 nM SAG from day 22
Protocol: [1] Control group (FIG. 2a, f, k, p); according to the method described in Example 1, culture was performed up to day 70 or day 75 from the start of suspension culture and without addition. [2]+BMP group (FIG. 2b, g, 1, q); 0.15 nM BMP4 was added from day 22 from the start of suspension culture to completion of suspension culture, and cultured up to day 70 or day 75 from the start of suspension culture. [3]+Cyclopamine-KAAD group (FIG. 2c, h, m, r); 500 nM Cyclopamine-KAAD was added from day 22 from the start of suspension culture to completion of the suspension culture, and cultured up to day 70 or day 75 from the start of suspension culture. [4]+LDN193189 group (FIG. 2d, i, n, s); 100 nM LDN193189 was added from day 22 from the start of suspension culture to completion of the suspension culture, and cultured up to day 70 or day 75 from the start of suspension culture. [5]+SAG group (FIG. 2e, j, o, t); 100 nM SAG was added from day 22 from the start of suspension culture to completion of the suspension culture, and cultured up to day 70 or day 75 from the start of suspension culture.
The retinal tissues produced by the method described in Example 2 were fixed with 4% para-formaldehyde, cryosections were prepared, and immunostaining for GFP (fluorescence of GFP variant incorporated in CRX gene locus can be identified. That is, cells similar to CRX-positive cell can be identified), ALDH1A3, or DAPI staining for staining the nucleus was performed. The retinal tissue used was one on day 75 from the start of suspension culture similar to Example 2. As a result, an ALDH1A3-positive region considered to be a ventral region in the Control (NUC) group was found in the retinal tissue, and in such region, particularly GFP-positive cells, i.e., CRX::Venus-positive cells expressing CRX, were less. In +BMP4 group, overall expression of ALDH1A3 was suppressed as compared to the Control (NUC) group, and CRX::Venus-positive cells increased along therewith.

Compound | proportion of rod photoreceptor precursor (Rod-like; NRL-positive) [1] | proportion of cone photoreceptor precursor (Cone; RXR-γ-positive and NRL-negative) [1] | proportion of NRL-positive rod photoreceptor precursor among photoreceptor precursors versus Control group ([1]; day 191) | ALDH1A3 expression / ALDH1A3-positive region versus Control (NUC) group (ALDH1A3) | CRX::Venus-positive photoreceptor precursor ([1]; day 191, 500 nM Cyclopamine-KAAD day 22 to day 100) | proportion of RXR-γ-positive cone photoreceptor precursor among photoreceptor precursors versus Control group ([1]; day 191)
BMP4: BMP protein; BMP signal transduction pathway agonist used as dorsalization signal transmitter | about 6.1% | about 31.3% | reduced | suppressed | – | –
CC1=C2C[C@H]3[C@@H](CC=C4CC(=O)CC[C@@]43C)[C@@H]2CC[C@]12O[C@@H]1C[C@H](C)CN(CCNC(=O)CCCCCNC(=O)CCc3ccccc3)[C@H]1[C@H]2C [Cyclopamine-KAAD] | about 11.5% | about 30.2% | decreased somewhat | – | can be increased | can increase
c1ccc2c(-c3cnn4cc(-c5ccc(N6CCNCC6)cc5)cnc34)ccnc2c1 [LDN193189, 4-[6-(4-piperazin-1-ylphenyl)pyrazolo[1,5-a]pyrimidin-3-yl]quinoline] | about 14.0% | about 20.0% | increased | increased | – | –
CNC1CCC(N(Cc2cccc(-c3ccncc3)c2)C(=O)c2sc3ccccc3c2Cl)CC1 (stereo not drawn) [SAG] | about 17.2% | about 12.6% | increased | increased | – | low

From patent publication US20200277571A1, “METHOD FOR AMPLIFYING CONE PHOTORECEPTORS OR ROD PHOTORECEPTORS USING DORSALIZATION SIGNAL TRANSMITTER OR VENTRALIZATION SIGNAL TRANSMITTER” (RIKEN, priority 2017, published 2020)
